From patent publication US5807535A, “Metal complexes of hydroxyaryl containing aminocarboxylic acid chelating agents” (Australian Nuclear Science & Technology Organisation, priority 1992, dated 1998)

Test: Biodistribution of 99mTc complexes in mice
Format: in vivo, Balb/c mice
Description: A series of derivatives incorporating carboxyl and phenolate donor groups (1-6) were synthesised by literature method and their radiolabelling characteristic and biological behaviour evaluated. Initial work involved an investigation of radiochemical properties of the ^99m Tc complexes of the ligands and their biodistribution in rats and mice (see Tables 1-6 and 8-12).
A typical method of radiolabelling of the chelator was achieved by dissolving the chelator in a basic solution of saline. The pH was then adjusted to approx. 6 with HCl. Excess stannous chloride was added to the resultant solution followed by one equivalent volume of sodium ^99m TcO4 (10-50 mCi/ml). Final concentration of the chelator was approx. 1 mg/ml. The efficacy of labelling was determined by ITLC-SG. For each product only one main radiochemical species was observed. Each complex was diluted to 15 μCi/100 μl with saline. […] (See FIGS. 1A and 1B).

CC(C)(C)c1ccc(O)c(NC(=O)CN(CCN(CC(=O)O)CC(=O)Nc2cc(C(C)(C)C)ccc2O)CC(=O)O)c1 [Compound 4]
biodistribution GIT (1 min): 3.96 % Injected dose | biodistribution bladder (1 min): 0.06 % Injected dose | biodistribution blood (1 min): 34.01 % Injected dose | biodistribution bone (1 min): 6.4 % Injected dose | biodistribution heart (1 min): 0.6 % Injected dose | biodistribution kidney (1 min): 7.83 % Injected dose | biodistribution liver (1 min): 31.82 % Injected dose | biodistribution lungs (1 min): 1.29 % Injected dose | biodistribution muscle (1 min): 11.85 % Injected dose | biodistribution skin (1 min): 8.94 % Injected dose | biodistribution spleen (1 min): 0.21 % Injected dose | biodistribution stomach (1 min): 0.52 % Injected dose | biodistribution tail (1 min): 4.62 % Injected dose | biodistribution urine (1 min): 0 % Injected dose | biodistribution GIT (3 min): 8.34 % Injected dose | biodistribution bladder (3 min): 0.09 % Injected dose | biodistribution blood (3 min): 12.06 % Injected dose | biodistribution bone (3 min): 2.5 % Injected dose | biodistribution heart (3 min): 0.22 % Injected dose | biodistribution kidney (3 min): 6.27 % Injected dose | biodistribution liver (3 min): 40.23 % Injected dose | biodistribution lungs (3 min): 0.56 % Injected dose | biodistribution muscle (3 min): 9.92 % Injected dose | biodistribution skin (3 min): 9.02 % Injected dose | biodistribution spleen (3 min): 0.12 % Injected dose | biodistribution stomach (3 min): 0.61 % Injected dose | biodistribution tail (3 min): 2.02 % Injected dose | biodistribution urine (3 min): 0.84 % Injected dose | biodistribution GIT (5 min): 13.7 % Injected dose | biodistribution bladder (5 min): 0.04 % Injected dose | biodistribution blood (5 min): 7.87 % Injected dose | biodistribution bone (5 min): 2.84 % Injected dose | biodistribution heart (5 min): 0.16 % Injected dose | biodistribution kidney (5 min): 4.18 % Injected dose | biodistribution liver (5 min): 30.24 % Injected dose | biodistribution lungs (5 min): 0.68 % Injected dose | biodistribution muscle (5 min): 7.77 % Injected dose | biodistribution skin (5 min): 8.67 % Injected dose | biodistribution spleen (5 min): 0.1 % Injected dose | biodistribution stomach (5 min): 3.96 % Injected dose | biodistribution tail (5 min): 4.63 % Injected dose | biodistribution urine (5 min): 1.55 % Injected dose | biodistribution GIT (10 min): 33.63 % Injected dose | biodistribution bladder (10 min): 0.17 % Injected dose | biodistribution blood (10 min): 5.04 % Injected dose | biodistribution bone (10 min): 2.08 % Injected dose | biodistribution heart (10 min): 0.13 % Injected dose | biodistribution kidney (10 min): 3.57 % Injected dose | biodistribution liver (10 min): 21.19 % Injected dose | biodistribution lungs (10 min): 0.52 % Injected dose | biodistribution muscle (10 min): 4.95 % Injected dose | biodistribution skin (10 min): 7.3 % Injected dose | biodistribution spleen (10 min): 0.07 % Injected dose | biodistribution stomach (10 min): 0.7 % Injected dose | biodistribution tail (10 min): 3.58 % Injected dose | biodistribution urine (10 min): 4.27 % Injected dose | biodistribution GIT (30 min): 39.97 % Injected dose | biodistribution bladder (30 min): 0.08 % Injected dose | biodistribution blood (30 min): 3.88 % Injected dose | biodistribution bone (30 min): 1.67 % Injected dose | biodistribution heart (30 min): 0.05 % Injected dose | biodistribution kidney (30 min): 3.67 % Injected dose | biodistribution liver (30 min): 12.48 % Injected dose | biodistribution lungs (30 min): 0.26 % Injected dose | biodistribution muscle (30 min): 3.35 % Injected dose | biodistribution skin (30 min): 4 % Injected dose | biodistribution spleen (30 min): 0.06 % Injected dose | biodistribution stomach (30 min): 4.84 % Injected dose | biodistribution tail (30 min): 1.91 % Injected dose | biodistribution urine (30 min): 3.21 % Injected dose
